Source: patent US11534457B2, “Use of dextran sulfate” (priority 2017, dated 2022)
Marks after values point to notes of the source that are not given here.

System: severe traumatic brain injury (sTBI)
Test: sTBI in rats, HPLC of purine-pyrimidine / energy metabolites in brain (Example 3)
Assay type: in vivo, Male Wistar rats
Experimental: The experimental protocol used in this study was approved by the Ethical Committee of the Catholic University of Rome, according to international standards and guidelines for animal care. Male Wistar rats of 300-350 g body weight (b.w.) were fed with standard laboratory diet and water ad libitum in a controlled environment.
1) n=6 animals subjected to sTBI, with drug administration after 30 minutes and sacrifice at 2 days post-TBI (Acute phase 1)
2) n=6 animals subjected to severe-TBI, with drug administration after 30 minutes and sacrifice at 7 days post-TBI (Acute phase 2).
3) n=6 animals subjected to severe-TBI, with drug administration after 3 days and sacrifice at 7 days post-TBI (Chronic phase).
As the anesthetic mixture, animals received 35 mg/kg b.w. ketamine and 0.25 mg/kg b.w. midazolam by i.p. injection. sTBI was induced by dropping a 450 g weight from 2 m height on to the rat head that had been protected by a metal disk previously fixed on the skull, according to the “weight drop” impact acceleration model (Marmarou et al., A new model of diffuse brain injury in rats. Part I: Pathophysiology and biomechanics. J Neurosurg. 1994; 80: 291-300). […] At the end of each period of treatment, rats were anesthetized again and then immediately sacrificed.
The drug treatment was a subcutaneous injection of 0.5 ml of LMW-DS (15 mg/kg) and administered according to the aforementioned schematic protocol.
An in vivo craniectomy was performed in all animals during anesthesia, after carefully removing the rat's skull, the brain was exposed and removed with a surgical spatula and quickly dropped in liquid nitrogen. After the wet weight (w.w.) determination, tissue preparation was affected as previously disclosed (Tavazzi et al., Cerebral oxidative stress and depression of energy metabolism correlate with severity of diffuse brain injury in rats. Neurosurgery. 2005; 56: 582-589; Vagnozzi et al., Temporal window of metabolic brain vulnerability to concussions: mitochondrial-related impairment-part I. Neurosurgery. 2007; 61: 379-388; Tavazzi et al., Temporal window of metabolic brain vulnerability to concussions: oxidative and nitrosative stresses-part II. Neurosurgery. 2007; 61: 390-395; Amorini et al., Severity of experimental traumatic brain injury modulates changes in concentrations of cerebral free amino acids. J Cell Mol Med. 2017; 21: 530-542.). Briefly, whole brain homogenization was performed with 7 ml of ice-cold, nitrogen-saturated, precipitating solution composed by CH3CN+10 mM KH2PO4, pH 7.40, (3:1; v:v), and using an Ultra-Turrax set at 24,000 rpm/min (Janke & Kunkel, Staufen, Germany). After centrifugation at 20,690×g, for 10 min at 4° C., the clear supernatants were saved, pellets were supplemented with 3 ml of the precipitating solution and homogenized again as described above. A second centrifugation was performed (20,690×g, for 10 min at 4° C.), pellets were saved, supernatants combined with those previously obtained, extracted by vigorous agitation with a double volume of HPLC-grade CHCl3 and centrifuged as above. The upper aqueous phases containing water-soluble low-molecular weight compounds were collected, subjected to chloroform washings for two more times (this procedure allowed the removal of all the organic solvent and of any lipid soluble compound from the buffered tissue extracts), adjusted in volumes with 10 mM KH2PO4, pH 7.40, to have ultimately aqueous 10% tissue homogenates and saved at −80° C. until assayed. […]

[1] = Acute phase 1: 15 mg/kg s.c. 30 min post-sTBI, sacrifice 2 days
[2] = Acute phase 2: 15 mg/kg s.c. 30 min post-sTBI, sacrifice 7 days

low molecular weight dextran sulfate [LMW-DS]
brain MDA levels (15 mg/kg s.c.): significant reduction | brain NAA and its substrates (15 mg/kg s.c.): significant improvements | brain ascorbic acid and GSH levels (15 mg/kg s.c.): significant improvement | brain nitrate concentrations (15 mg/kg s.c., acute and chronic phases of sTBI): significantly decreased | ADO, cerebral concentration [1]: 71.67 ± 15.87 nmol/g (w.w.) | ADP, cerebral concentration [1]: 279.34 ± 29.59^b nmol/g (w.w.) | ADP-ribose, cerebral concentration [1]: 137.87 ± 43.18^a nmol/g (w.w.) | AMP, cerebral concentration [1]: 53.61 ± 17.91^a,c,j nmol/g (w.w.) | ATP, cerebral concentration [1]: 1464.25 ± 99.09^a,h nmol/g (w.w.) | CDP choline, cerebral concentration [1]: 10.93 ± 3.22^b,h nmol/g (w.w.) | CDP, cerebral concentration [1]: 25.53 ± 6.83^a,c nmol/g (w.w.) | CMP, cerebral concentration [1]: 30.12 ± 9.97^a,h nmol/g (w.w.) | CTP, cerebral concentration [1]: 18.98 ± 6.58^a,g nmol/g (w.w.) | CoA-SH, cerebral concentration [1]: 21.61 ± 3.42^a,h nmol/g (w.w.) | GDP glucose, cerebral concentration [1]: 38.71 ± 6.86 nmol/g (w.w.) | GDP, cerebral concentration [1]: 158.72 ± 24.57^a nmol/g (w.w.) | GMP, cerebral concentration [1]: 177.00 ± 32.39^a,g nmol/g (w.w.) | GSH, cerebral concentration [1]: 2649.50 ± 397.31^a,d nmol/g (w.w.) | GSSG, cerebral concentration [1]: 185.21 ± 48.10 nmol/g (w.w.) | GTP, cerebral concentration [1]: 255.29 ± 45.21^a,g nmol/g (w.w.) | IMP, cerebral concentration [1]: 67.71 ± 10.63^g,i nmol/g (w.w.) | MDA, cerebral concentration [1]: 12.47 ± 2.09^a,c,g nmol/g (w.w.) | NADH, cerebral concentration [1]: 15.49 ± 2.05^c,j nmol/g (w.w.) | NADPH, cerebral concentration [1]: 6.22 ± 1.73 nmol/g (w.w.) | NADP^+, cerebral concentration [1]: 17.95 ± 3.28^a nmol/g (w.w.) | NAD^+, cerebral concentration [1]: 404.63 ± 51.10^a,c,i nmol/g (w.w.) | NM, cerebral concentration [1]: 6147.91 ± 989.12^a nmol/g (w.w.) | NO2, cerebral concentration [1]: 216.03 ± 41.74^a nmol/g (w.w.) | NO3, cerebral concentration [1]: 210.64 ± 91.95^d nmol/g (w.w.) | UDP, cerebral concentration [1]: 61.83 ± 10.23^a,g nmol/g (w.w.) | UDP-Gal, cerebral concentration [1]: 119.45 ± 12.50 nmol/g (w.w.) | UDP-GalNac, cerebral concentration [1]: 19.17 ± 4.01^a nmol/g (w.w.) | UDP-Glc, cerebral concentration [1]: 32.14 ± 4.59^g nmol/g (w.w.) | UDP-GlcNac, cerebral concentration [1]: 95.85 ± 19.73^h,i nmol/g (w.w.) | UMP, cerebral concentration [1]: 107.80 ± 21.62 nmol/g (w.w.) | UTP, cerebral concentration [1]: 123.46 ± 15.42^d nmol/g (w.w.) | acetyl-CoA, cerebral concentration [1]: 21.56 ± 6.22^a,g,i nmol/g (w.w.) | adenine, cerebral concentration [1]: 44.82 ± 6.31^a,d,g nmol/g (w.w.) | ascorbic acid, cerebral concentration [1]: 3733.10 ± 277.88^a,d nmol/g (w.w.) | creatinine, cerebral concentration [1]: 24.55 ± 3.20^b,g,i nmol/g (w.w.) | cytidine, cerebral concentration [1]: 15.40 ± 3.04 nmol/g (w.w.) | cytosine, cerebral concentration [1]: 17.69 ± 2.50^b,d nmol/g (w.w.) | guanine, cerebral concentration [1]: 4.80 ± 1.24^b nmol/g (w.w.) | guanosine, cerebral concentration [1]: 20.71 ± 5.66 nmol/g (w.w.) | hypoxanthine, cerebral concentration [1]: 14.47 ± 2.87^a nmol/g (w.w.) | inosine, cerebral concentration [1]: 92.55 ± 31.20^c nmol/g (w.w.) | malonyl-CoA, cerebral concentration [1]: 12.33 ± 1.82^b nmol/g (w.w.) | orotic acid, cerebral concentration [1]: 8.80 ± 2.45^b,h,j nmol/g (w.w.) | thymidine, cerebral concentration [1]: 0.69 ± 0.11 nmol/g (w.w.) | uracil, cerebral concentration [1]: 14.56 ± 5.44 nmol/g (w.w.) | uric acid, cerebral concentration [1]: 23.62 ± 3.77^a,d,h nmol/g (w.w.) | uridine, cerebral concentration [1]: 76.35 ± 12.85^a,c nmol/g (w.w.) | xanthine, cerebral concentration [1]: 9.46 ± 2.34^d nmol/g (w.w.) | β-pseudouridine, cerebral concentration [1]: 6.65 ± 1.30^g,i nmol/g (w.w.) | ADO, cerebral concentration [2]: 82.11 ± 16.51^a nmol/g (w.w.) | ADP, cerebral concentration [2]: 264.07 ± 28.29^b,e,j nmol/g (w.w.) | ADP-ribose, cerebral concentration [2]: 141.96 ± 23.56^a,e,j nmol/g (w.w.) | AMP, cerebral concentration [2]: 57.70 ± 23.01^a,e,j nmol/g (w.w.) | ATP, cerebral concentration [2]: 1632.23 ± 90.07^a,e,j nmol/g (w.w.) | CDP choline, cerebral concentration [2]: 6.91 ± 1.86 nmol/g (w.w.) | CDP, cerebral concentration [2]: 24.29 ± 6.76^a nmol/g (w.w.) | CMP, cerebral concentration [2]: 15.68 ± 2.12^f,j nmol/g (w.w.) | CTP, cerebral concentration [2]: 32.63 ± 3.99^e,i nmol/g (w.w.) | CoA-SH, cerebral concentration [2]: 30.57 ± 6.02^f nmol/g (w.w.) | GDP glucose, cerebral concentration [2]: 49.25 ± 10.33^a nmol/g (w.w.) | GDP, cerebral concentration [2]: 126.70 ± 31.35^a,j nmol/g (w.w.) | GMP, cerebral concentration [2]: 91.47 ± 12.35^e,i nmol/g (w.w.) | GSH, cerebral concentration [2]: 2821.50 ± 242.82^a,e nmol/g (w.w.) | GSSG, cerebral concentration [2]: 219.54 ± 53.36 nmol/g (w.w.) | GTP, cerebral concentration [2]: 336.65 ± 35.18^a,e,j nmol/g (w.w.) | IMP, cerebral concentration [2]: 102.63 ± 22.09^a nmol/g (w.w.) | MDA, cerebral concentration [2]: 4.82 ± 1.73^a,e,i nmol/g (w.w.) | NADH, cerebral concentration [2]: 13.12 ± 4.19^e nmol/g (w.w.) | NADPH, cerebral concentration [2]: 7.05 ± 2.21 nmol/g (w.w.) | NADP^+, cerebral concentration [2]: 21.27 ± 4.19^b,e,j nmol/g (w.w.) | NAD^+, cerebral concentration [2]: 401.18 ± 34.53^a,e,i nmol/g (w.w.) | NM, cerebral concentration [2]: 7262.84 ± 749.73^a,e nmol/g (w.w.)
